Measurements reported in patent US20190091259A1, “Selective Chemotherapy Treatments and Diagnostic Methods Related Thereto” (Emory University, priority 2014, published 2019).

What was measured:
PARylated proteins = test: Level of PARylated proteins in treated cells; assay type: cell-based; details: veliparib 5 μmol/L
[1] = Veliparib pharmacokinetic and platinum adducts in tumor-bearing animals; assay type: in vivo
Description: Treated animals were sacrificed either at 1 or 24 h posttreatment by cervical dislocation. Plasma and tumor samples were collected and immediately stored in liquid phase nitrogen or at −70° C. until ready for analysis. Tissues were homogenized in approximately 1 mL of PBS. Veliparib concentrations in plasma and tissue homogenates were quantitated by LC-MS. Concentrations of total platinum in plasma and tissue homogenate were quantitated by atomic absorption spectrophotometry (AAS).

H146 xenografts = assay type: in vivo
SCLC cell lines [2] = test: Short-term MTS cytotoxicity assay in a panel of 9 SCLC cell lines; details: for single-agent growth inhibition: veliparib 0-128 μmol/L, panel of 9 SCLC cell lines
H146 = test: In vitro cytotoxicity assay, cisplatin sensitivity, H146; assay type: cell-based; details: H146 cell line; read-out: IC50 concentration
H128 = test: In vitro cytotoxicity assay, cisplatin sensitivity, H128; assay type: cell-based; details: H128 cell line; read-out: IC50 concentration
SCLC cell lines [3] = system: SCLC cell lines

With `C[C@]1(c2nc3c(C(N)=O)cccc3[nH]2)CCCN1` [veliparib] the “level of PARylated proteins in cells” value (PARylated proteins) was “significant reduction”, the intratumoral platinum concentration ([1]; in the presence of veliparib) was “Increased intratumoral platinum concentration” and the “intratumoral veliparib concentration sufficient for in vivo potentiation of the antitumor effect of cisplatin” value ([1]; tumor) was 2 µmol/L. For the same compound, the “dose dependence of the potentiating effect of veliparib when combined with cisplatin” value (H146 xenografts; FIG. 2B) was “appeared dose dependent”, the “toxicity as indicated by the measured weight of the animals” value (H146 xenografts; veliparib combined with cisplatin) was “without additive toxicity” and the single-agent growth inhibition (SCLC cell lines [2]) was “limited single-agent activity”. The single-agent growth inhibition (SCLC cell lines [2]; listed as Veliparib) was “limited growth inhibition” and the “potentiated the activity of cisplatin, carboplatin, and etoposide” value (SCLC cell lines [2]; veliparib 5 μmol/L) was “not”.

With `N.N.[Cl][Pt][Cl]` [cisplatin] the IC50 (H146) was 5.2 µM and the IC50 (H128) was 14.5 µM.

With `COc1cc([C@@H]2c3cc4c(cc3[C@@H](O[C@@H]3O[C@@H]5CO[C@@H](C)O[C@H]5[C@H](O)[C@H]3O)[C@H]3COC(=O)[C@H]23)OCO4)cc(OC)c1O` [etoposide] the “correlation (CC) of the magnitude of potentiation by veliparib and the sensitivity of the cell line to the cytotoxic agent (single agent IC50)” value (SCLC cell lines [3]) was 0.24.
